# Measurements published in PubChem BioAssay AID1963849 (Molecular Pharmacology Branch, DTP, NCI, 2024).
# Test system: 299254-011-R-J1-PDC complex spheroid viability
# Experiment: Anticancer human tumor 299254-011-R-J1-PDC patient-derived melanoma cell line growth inhibition [POLQ]
# Details: for IC50: curve of first compound; for viability, T/C: stronger effect = lower value
# Outline: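 Three-cell-type spheroids modelling solid tumor plus stroma served as the readout system; POL inhibitors were tested individually and in combination, concentration ranges set by clinical Cmax where known.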
# [1] = second compound 0.0316 µM, first compound 0.0316 µM
# [2] = second compound 0.0316 µM, first compound 0.1 µM
# [3] = second compound 0.0316 µM, first compound 0.316 µM
# [4] = second compound 0.0316 µM, first compound 1 µM
# [5] = second compound 0.0316 µM, first compound 3.16 µM
# [6] = second compound 0.0316 µM, first compound 10 µM
# [7] = second compound 0.1 µM, first compound 0.0316 µM
# [8] = second compound 0.1 µM, first compound 0.1 µM
# [9] = second compound 0.1 µM, first compound 0.316 µM
# [10] = second compound 0.1 µM, first compound 1 µM
# [11] = second compound 0.1 µM, first compound 3.16 µM
# [12] = second compound 0.1 µM, first compound 10 µM
# [13] = second compound 0.316 µM, first compound 0.0316 µM
# [14] = second compound 0.316 µM, first compound 0.1 µM
# [15] = second compound 0.316 µM, first compound 0.316 µM
# [16] = second compound 0.316 µM, first compound 1 µM
# [17] = second compound 0.316 µM, first compound 3.16 µM
# [18] = second compound 0.316 µM, first compound 10 µM
# [19] = second compound 1 µM, first compound 0.0316 µM
# [20] = second compound 1 µM, first compound 0.1 µM
# [21] = second compound 1 µM, first compound 0.316 µM
# [22] = second compound 1 µM, first compound 1 µM
# [23] = second compound 1 µM, first compound 3.16 µM
# [24] = second compound 1 µM, first compound 10 µM
# [25] = second compound 3.16 µM, first compound 0.0316 µM
# [26] = second compound 3.16 µM, first compound 0.1 µM
# [27] = second compound 3.16 µM, first compound 0.316 µM
# [28] = second compound 3.16 µM, first compound 1 µM
# [29] = second compound 3.16 µM, first compound 3.16 µM
# [30] = second compound 3.16 µM, first compound 10 µM
# [31] = second compound 10 µM, first compound 0.0316 µM
# [32] = second compound 10 µM, first compound 0.1 µM
# [33] = second compound 10 µM, first compound 0.316 µM
# [34] = second compound 10 µM, first compound 1 µM
# [35] = second compound 10 µM, first compound 3.16 µM
# [36] = second compound 10 µM, first compound 10 µM
# 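Also: spheroids exposed to drugs for one week before measurement.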
# 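For viability, T/C in this document: percent viability relative to DMSO vehicle control taken as 100%.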
smiles,measurement,setting,value
CC1COCCN1c1cc(C2(S(C)(=N)=O)CC2)nc(-c2ccnc3[nH]ccc23)n1 (stereo not drawn) + COC1C(OC(N)=O)C(O)C(Oc2ccc3c(O)c(NC(=O)c4ccc(O)c(CC=C(C)C)c4)c(=O)oc3c2C)OC1(C)C,IC50,second compound 0.0316 µM,6.05 µM
same,IC50,second compound 0.1 µM,5.77 µM
same,IC50,second compound 0.316 µM,6.98 µM
same,IC50,second compound 1 µM,5.46 µM
same,IC50,second compound 3.16 µM,7.19 µM
same,IC50,second compound 10 µM,6.75 µM
same,"viability, T/C",[1],110%
same,"viability, T/C",[2],116%
same,"viability, T/C",[3],102%
same,"viability, T/C",[4],85.3%
same,"viability, T/C",[5],66.5%
same,"viability, T/C",[6],38.1%
same,"viability, T/C",[7],110%
same,"viability, T/C",[8],95%
same,"viability, T/C",[9],111%
same,"viability, T/C",[10],106%
same,"viability, T/C",[11],60.9%
same,"viability, T/C",[12],39.9%
same,"viability, T/C",[13],98.9%
same,"viability, T/C",[14],98.7%
same,"viability, T/C",[15],110%
same,"viability, T/C",[16],106%
same,"viability, T/C",[17],69.9%
same,"viability, T/C",[18],41%
same,"viability, T/C",[19],112%
same,"viability, T/C",[20],122%
same,"viability, T/C",[21],109%
same,"viability, T/C",[22],85.8%
same,"viability, T/C",[23],65%
same,"viability, T/C",[24],35.7%
same,"viability, T/C",[25],101%
same,"viability, T/C",[26],122%
same,"viability, T/C",[27],105%
same,"viability, T/C",[28],101%
same,"viability, T/C",[29],70.4%
same,"viability, T/C",[30],41.8%
same,"viability, T/C",[31],122%
same,"viability, T/C",[32],103%
same,"viability, T/C",[33],109%
same,"viability, T/C",[34],90.9%
same,"viability, T/C",[35],73.6%
same,"viability, T/C",[36],37.6%
CCCS(=O)(=O)Nc1ccc(F)c(C(=O)c2c[nH]c3ncc(-c4ccc(Cl)cc4)cc23)c1F + COC1C(OC(N)=O)C(O)C(Oc2ccc3c(O)c(NC(=O)c4ccc(O)c(CC=C(C)C)c4)c(=O)oc3c2C)OC1(C)C,IC50,second compound 0.0316 µM,> 10 µM
same,IC50,second compound 0.1 µM,> 10 µM
same,IC50,second compound 0.316 µM,> 10 µM
same,IC50,second compound 1 µM,> 10 µM
same,IC50,second compound 3.16 µM,> 10 µM
same,IC50,second compound 10 µM,> 10 µM
same,"viability, T/C",[1],116%
same,"viability, T/C",[2],94.3%
same,"viability, T/C",[3],107%
same,"viability, T/C",[4],136%
same,"viability, T/C",[5],107%
same,"viability, T/C",[6],69.6%
same,"viability, T/C",[7],111%
same,"viability, T/C",[8],97.4%
same,"viability, T/C",[9],118%
same,"viability, T/C",[10],105%
same,"viability, T/C",[11],123%
same,"viability, T/C",[12],63.8%
same,"viability, T/C",[13],93.6%
same,"viability, T/C",[14],99.2%
same,"viability, T/C",[15],120%
same,"viability, T/C",[16],117%
same,"viability, T/C",[17],121%
same,"viability, T/C",[18],68.8%
same,"viability, T/C",[19],94%
same,"viability, T/C",[20],98.4%
same,"viability, T/C",[21],99.2%
same,"viability, T/C",[22],107%
same,"viability, T/C",[23],118%
same,"viability, T/C",[24],67.5%
same,"viability, T/C",[25],108%
same,"viability, T/C",[26],113%
same,"viability, T/C",[27],116%
same,"viability, T/C",[28],126%
same,"viability, T/C",[29],124%
same,"viability, T/C",[30],82.8%
same,"viability, T/C",[31],106%
same,"viability, T/C",[32],112%
same,"viability, T/C",[33],110%
same,"viability, T/C",[34],118%
same,"viability, T/C",[35],118%
same,"viability, T/C",[36],83.4%
CNCc1ccc(-c2[nH]c3cc(F)cc4c3c2CCNC4=O)cc1 + COC1C(OC(N)=O)C(O)C(Oc2ccc3c(O)c(NC(=O)c4ccc(O)c(CC=C(C)C)c4)c(=O)oc3c2C)OC1(C)C,IC50,second compound 0.0316 µM,> 10 µM
same,IC50,second compound 0.1 µM,> 10 µM
same,IC50,second compound 0.316 µM,> 10 µM
same,IC50,second compound 1 µM,> 10 µM
same,IC50,second compound 3.16 µM,> 10 µM
same,IC50,second compound 10 µM,> 10 µM
same,"viability, T/C",[1],99.5%
same,"viability, T/C",[2],98.7%
same,"viability, T/C",[3],102%
same,"viability, T/C",[4],117%
same,"viability, T/C",[5],114%
same,"viability, T/C",[6],103%
same,"viability, T/C",[7],114%
same,"viability, T/C",[8],106%
same,"viability, T/C",[9],102%
same,"viability, T/C",[10],107%
same,"viability, T/C",[11],118%
same,"viability, T/C",[12],133%
same,"viability, T/C",[13],91.6%
same,"viability, T/C",[14],94.9%
same,"viability, T/C",[15],98.7%
same,"viability, T/C",[16],105%
same,"viability, T/C",[17],97.2%
same,"viability, T/C",[18],116%
same,"viability, T/C",[19],91.8%
same,"viability, T/C",[20],105%
same,"viability, T/C",[21],105%
same,"viability, T/C",[22],117%
same,"viability, T/C",[23],117%
same,"viability, T/C",[24],115%
same,"viability, T/C",[25],113%
same,"viability, T/C",[26],90.9%
same,"viability, T/C",[27],95.4%
same,"viability, T/C",[28],118%
same,"viability, T/C",[29],105%
same,"viability, T/C",[30],111%
same,"viability, T/C",[31],113%
same,"viability, T/C",[32],104%
same,"viability, T/C",[33],111%
same,"viability, T/C",[34],106%
same,"viability, T/C",[35],96.3%
same,"viability, T/C",[36],100%
COc1ccc([C@@H](O)c2cc(-c3ncnc4cc(N5CCOCC5)ccc34)c(F)cc2Cl)nn1 + COC1C(OC(N)=O)C(O)C(Oc2ccc3c(O)c(NC(=O)c4ccc(O)c(CC=C(C)C)c4)c(=O)oc3c2C)OC1(C)C,IC50,second compound 0.0316 µM,9.66 µM
same,IC50,second compound 0.1 µM,8.91 µM
same,IC50,second compound 0.316 µM,8.8 µM
same,IC50,second compound 1 µM,> 10 µM
same,IC50,second compound 3.16 µM,> 10 µM
same,IC50,second compound 10 µM,8.74 µM
same,"viability, T/C",[1],103%
same,"viability, T/C",[2],90.6%
same,"viability, T/C",[3],97.7%
same,"viability, T/C",[4],109%
same,"viability, T/C",[5],102%
same,"viability, T/C",[6],48.3%
same,"viability, T/C",[7],115%
same,"viability, T/C",[8],109%
same,"viability, T/C",[9],114%
same,"viability, T/C",[10],99%
same,"viability, T/C",[11],89.8%
same,"viability, T/C",[12],45.4%
same,"viability, T/C",[13],116%
same,"viability, T/C",[14],125%
same,"viability, T/C",[15],118%
same,"viability, T/C",[16],106%
same,"viability, T/C",[17],86.7%
same,"viability, T/C",[18],45.4%
same,"viability, T/C",[19],118%
same,"viability, T/C",[20],107%
same,"viability, T/C",[21],101%
same,"viability, T/C",[22],110%
same,"viability, T/C",[23],90.6%
same,"viability, T/C",[24],54.5%
same,"viability, T/C",[25],128%
same,"viability, T/C",[26],96.3%
same,"viability, T/C",[27],109%
same,"viability, T/C",[28],103%
same,"viability, T/C",[29],85.1%
same,"viability, T/C",[30],51.1%
same,"viability, T/C",[31],107%
same,"viability, T/C",[32],107%
same,"viability, T/C",[33],105%
same,"viability, T/C",[34],87.1%
same,"viability, T/C",[35],92.9%
same,"viability, T/C",[36],44%
